Reference: patent US7803792B2, “Quaternary ammonium compounds” (Asahi Kasei Pharma Corporation, priority 2002, dated 2010)

Assays:
[1] = system: bile acid loaded model; experiment: Cholestasis-caused hepatopathy model, bile acid loaded model, 4.5 days (Test Example 14); type: in vivo, rat; settings: administration period 4.5 days, N = 6, average ± standard error
Description: “Cholestasis-Caused Hepatopathy” Model (Bile Acid Loaded Model)
In this test example, the model of hepatopathy due to loading of bile acid was carried out similarly to the protocol B in Test Example 5. However, the administration period in this test example was changed to 4.5 days. […] Therefore, the compounds have proven to be useful as drugs for the treatment and prevention of cholestasis-caused hepatopathy, in particular as drugs for the treatment and prevention of primary biliary cirrhosis and primary sclerosing cholangitis. Moreover, the compounds of other examples of the present invention not shown in Tables 18 and 19 can be expected to have excellent ameliorating effects on cholestasis-caused hepatopathy.

[2] = system: bile duct partial ligation model; experiment: Cholestasis-caused hepatopathy model, bile duct partial ligation, IBAT inhibiting compounds, blood after 24 hours (Test Example 13); type: in vivo, rat; settings: blood 24 hours after administration, N = 3, average ± standard error
Description: “Cholestasis-Caused Hepatopathy” Model (Bile Duct Partial Ligation Model)
In this test example, the model of cholestasis-caused hepatopathy was tested according to the method described in Test Example 5.
That is, the abdomens of 8 to 10 weeks old SD (IGS) male rats were cut open under anesthesia with pentobarbital and partial ligation surgery of the bile duct was carried out. After the surgery, 200 mg/kg of bile acid and an IBAT inhibiting compound were forcibly orally administered to the rats (each n=3). As a control group, physiological saline […] was administered (n=3). To observe the effect of the partial ligation surgery, a sham group (the abdomen was cut open under anesthesia with pentobarbital but partial ligation surgery of the bile duct was not carried out) and an untreated group were established (each n=3). After 24 hours from the administration a blood sample was taken from the abdominal aorta and AST, ALT, and ALP in the blood were measured using the method described in Test Example 5.

[3] = system: Caco 2 cells; experiment: Toxicity with respect to alimentary canal: cytotoxicity to Caco 2, LDH activity (Test Example 12); type: cell-based, human; settings: LDH activity after 2 hours; for Toxicity (%) to Caco 2: relative to cytolytic agent = 100%
Description: Toxicity With Respect to Alimentary Canal
To evaluate the toxicity of the compounds of the present invention to the alimentary canal, the cytotoxicity to Caco 2, which is a human originated small intestine epithelial cell line, was tested by referring to the method of Bestwick C S et al. [Biochimica et Biophysica Acta 1474: 47-55, 1999].
That is, Caco 2 cells (purchased from ATCC) were inoculated on a 96-well plate such that there were 10,000 cells/well [MEM-E medium, 10% FBS (Fetal Bovine Serum), 1% NEAA (Non Essential Amino Acid) solution, (both manufactured by GIBCO PHARMACEUTICAL COMPANY)]. After culturing for 48 hours, the test compounds were diluted with the culture medium and added to the respective wells. After 2 hours, 50 μl of the culture broth was collected and the LDH activity in the collected culture broth was measured by using an LDH activity measuring kit (CytoTox 96 Non-Radioactive Cytotoxicity Assay, manufactured by PROMEGA CORPORATION). Relative activities were calculated assuming the LDH activity as 100% when the Caco 2 cells were treated with the cytolytic agent and the obtained relative activities were taken as cytotoxicities to Caco 2 cell.

[4] = target: T1, human IBAT (Homo sapiens, UniProt Q12908); experiment: In vitro assay of temporarily expressed human IBAT transporter using Cos 7 cells (Test Example 8); type: cell-based; settings: Cos 7 cells temporarily expressing human IBAT; [3H] taurocholate 8 μM, 37° C., 60 minutes
T1 construct: expressed in transfected cells; host or cells: Cos 7
T1 sequence (Q12908 1-348): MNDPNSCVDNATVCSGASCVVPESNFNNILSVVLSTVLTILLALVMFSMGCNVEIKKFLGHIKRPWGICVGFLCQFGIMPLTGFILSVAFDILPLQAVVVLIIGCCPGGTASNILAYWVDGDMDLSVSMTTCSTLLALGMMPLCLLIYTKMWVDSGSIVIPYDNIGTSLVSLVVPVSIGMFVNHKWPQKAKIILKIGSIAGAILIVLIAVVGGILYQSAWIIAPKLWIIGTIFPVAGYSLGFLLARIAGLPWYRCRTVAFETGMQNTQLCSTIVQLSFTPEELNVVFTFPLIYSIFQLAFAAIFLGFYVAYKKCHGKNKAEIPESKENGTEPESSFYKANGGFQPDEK
Summary of the method: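 Cos 7 cells transiently transfected with human or rat IBAT cDNA, assayed one day later in Hank's buffer with 25 mM glucose, 10 mM HEPES (pH 7.4) plus compound. Uptake of 8 μM [^3H]taurocholate over 60 min at 37 °C, stopped with 1 mM taurocholate washes; lysate radioactivity by scintillation counting.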

[5] = system: Cholic acid-loaded rat model; experiment: Bile acid-decreasing effect in portal vein of rats loaded with cholic acid (Test Example 2); type: in vivo; settings: portal vein blood after 2 hours
Description: Bile Acid-Decreasing Effect in Portal Vein of Rats Loaded With Cholic Acid
In this test example, the test for confirming the bile acid-decreasing effect in portal vein of cholic acid-loaded rats was carried out according to the method described in Pharmacology and Therapeutics [Jpn Pharmacol. Ther., Vol. 24 Supplement, 1996, 103 (S-577)-110 (S-584)].
That is, 7 to 9 weeks old SD (IGS) rats were starved on the day before the test and thereafter. […] After 2 hours from the administration, a sample of blood was taken from a portal vein and total serum bile acid level was measured to study the effect of the test compound (n=6). Further, as a control group, a group (n=6) loaded with cholic acid (200 mg/kg) only was prepared and the same test procedure was followed. A commercially available kit (trade name: SOTANJUSAN-TEST WAKO-(SOTANJUSAN=total bile acid), manufactured by WAKO PURE CHEMICAL […], LTD.) was used for the measurement of bile acid. Assuming the value of the control group, which is a group in which no test compound was used, as 100%, the rate of decrease (percentage (%) of decrease) of the bile acid level when a fixed amount of the test compound was used was determined.

[6] = 0.3 mg/kg oral with cholic acid 200 mg/kg, HCO-60 0.1%

**Q.** With `CCCC[C@@]1(CC)CS(=O)(=O)c2cc(OC)c(OC)cc2[C@H](c2ccccc2)N1` (relative stereo) [Compound B, Trans-3-butyl-3-ethyl-2,3,4,5-tetrahydro-7,8-dimethoxy-5-phenyl-1,4-benzothiazepine-1,1-dioxide] as the compound, how does the ALT ([1]; Table 19, 0.1 mg/kg) read?
**A.** The ALT was 54 ± 6 IU/L.

**Q.** What about the AST ([1]; Table 19, 0.1 mg/kg) of the same compound?
**A.** Its AST is 110 ± 4 IU/L.

**Q.** What about the ALP ([2]; Table 17, 1 mg/kg oral) of the same compound?
**A.** Its ALP is 1335 ± 116 IU/L.

**Q.** What about the ALT ([2]; Table 17, 1 mg/kg oral) of the same compound?
**A.** The ALT was 138 ± 54 IU/L.

**Q.** What about the AST ([2]; Table 17, 1 mg/kg oral) of the same compound?
**A.** The AST was 261 ± 63 IU/L.

**Q.** Which ALT ([1]; Table 18, 10 mg/kg) does the source give for `CCCC[C@@]1(CC)CS(=O)(=O)c2ccccc2[C@H](c2ccccc2)N1` (relative stereo) [Compound C, Trans-3-butyl-3-ethyl-2,3,4,5-tetrahydro-5-phenyl-1,4-benzothiazepine-1,1-dioxide] here?
**A.** The ALT was 53 ± 6 IU/L.

**Q.** What about the AST ([1]; Table 18, 10 mg/kg) of the same compound?
**A.** The AST was 100 ± 2 IU/L.

**Q.** And the ALP ([2]; Table 16, 10 mg/kg oral)?
**A.** The ALP was 948 ± 208 IU/L.

**Q.** And the ALT ([2]; Table 16, 10 mg/kg oral)?
**A.** The ALT was 113 ± 44 IU/L.

**Q.** What about the AST ([2]; Table 16, 10 mg/kg oral) of the same compound?
**A.** Its AST is 313 ± 82 IU/L.

**Q.** For `CCCCC1(CCCC)CS(=O)(=O)c2ccc(N(C)C)cc2[C@H](c2cccc([N+](C)(C)C)c2)[C@@H]1O.[I-]` (relative stereo) [Compound D, Cis-[3-(3,3-dibutyl-7-dimethylamino-4-hydroxy-1,1-dioxo-2,3,4,5-tetrahydro-1-benzothiepin-5-yl)phenyl]trimethyl-ammonium iodide], which ALT ([1]; Table 18, 10 mg/kg) is on record?
**A.** Its ALT is 46 ± 4 IU/L.

**Q.** What about the AST ([1]; Table 18, 10 mg/kg) of the same compound?
**A.** Its AST is 100 ± 9 IU/L.

**Q.** And the ALP ([2]; Table 16, 10 mg/kg oral)?
**A.** The ALP was 715 ± 24 IU/L.

**Q.** And the ALT ([2]; Table 16, 10 mg/kg oral)?
**A.** Its ALT is 73 ± 17 IU/L.

**Q.** What about the AST ([2]; Table 16, 10 mg/kg oral) of the same compound?
**A.** The AST was 275 ± 12 IU/L.

**Q.** What does the source list for `CCCCC1(CCCC)CS(=O)(=O)c2ccc(N(C)C)cc2C(c2ccc(OCc3ccc(C[N+]45CCN(CC4)CC5)cc3)cc2)N1.[Cl-]` (stereo not shown) [Comparative Example 2, 1-{4-[4-(3,3-Dibutyl-7-dimethylamino-1,1-dioxo-2,3,4,5-tetrahydro-1,4-benzothiazepin-5-yl)phenoxymethyl]benzyl}-4-aza-1-azoniabicyclo[2.2.2]octane chloride]?
**A.** cytotoxicity to Caco 2 cells ([3]; in words): showed cytotoxicity to small intestine epithelial cell line at low concentrations; ALP ([2]; Table 17, 10 mg/kg oral): 1266 ± 160 IU/L; ALT ([2]; Table 17, 10 mg/kg oral): 281 ± 103 IU/L; AST ([2]; Table 17, 10 mg/kg oral): 547 ± 159 IU/L

**Q.** Which ALT ([1]; Table 19, 10 mg/kg) does the source give for `CCC(CC)CC(=O)c1c(C(=O)OC)c(-c2ccc(OC)c(OC)c2)c2c(OC)c(OC)c(OC)cc2c1O` [Compound E, Methyl 1-(3,4-dimethoxyphenyl)-3-(3-ethylvaleryl)-4-hydroxy-6,7,8-trimethoxy-2-naphthoate] here?
**A.** The ALT was 46 ± 3 IU/L.

**Q.** What about the AST ([1]; Table 19, 10 mg/kg) of the same compound?
**A.** The AST was 105 ± 11 IU/L.

**Q.** And the ALP ([2]; Table 17, 10 mg/kg oral)?
**A.** Its ALP is 1345 ± 145 IU/L.

**Q.** And the ALT ([2]; Table 17, 10 mg/kg oral)?
**A.** The ALT was 180 ± 68 IU/L.

**Q.** And the AST ([2]; Table 17, 10 mg/kg oral)?
**A.** Its AST is 280 ± 72 IU/L.

**Q.** `CCC(CC)CC(=O)c1c(C(=O)OC)c(-c2ccc(OC)c(OC)c2)c2c(OC)c(OC)c(OC)cc2c1OC1OC(C(=O)O)C(O)C(O)C1O` [Compound F, {1-O-[4-(3,4-dimethoxyphenyl)-2-(3-ethyl-pentanoyl)-5,6,7-trimethoxy-3-(methoxycarbonyl)naphthalen-1-yl]-β-D-glucopyranosido}uronic acid] was tested. Which ALT ([1]; Table 19, 10 mg/kg) did it give?
**A.** The ALT was 58 ± 5 IU/L.

**Q.** And the AST ([1]; Table 19, 10 mg/kg)?
**A.** The AST was 123 ± 16 IU/L.

**Q.** What about the ALP ([2]; Table 17, 10 mg/kg oral) of the same compound?
**A.** The ALP was 1423 ± 115 IU/L.

**Q.** What about the ALT ([2]; Table 17, 10 mg/kg oral) of the same compound?
**A.** The ALT was 214 ± 53 IU/L.

**Q.** What about the AST ([2]; Table 17, 10 mg/kg oral) of the same compound?
**A.** Its AST is 320 ± 66 IU/L.

**Q.** What does the source list for `CCCCC1(CCCC)CS(=O)(=O)c2ccc(N(C)C)cc2C(c2cccc(NC(=S)Nc3ccc(C[n+]4ccc5ccccc5c4)cc3)c2)N1.[Br-]` (stereo not shown) [Example 3783]?
**A.** Toxicity (%) to Caco 2 ([3]; 3 μM): <1%; Toxicity (%) to Caco 2 ([3]; 10 μM): <1%; Toxicity (%) to Caco 2 ([3]; 30 μM): <1%; IC50 [4]: 48 nM; Rate of decrease (%) of bile acid ([5]; 0.1 mg/kg oral with cholic acid 200 mg/kg, HCO-60 0.1%): 16%

**Q.** With `CCCCC1(CCCC)CS(=O)(=O)c2ccc(N(C)C)cc2C(c2cccc(NC(=S)CCCCC[N+](C)(C)Cc3ccccc3)c2)N1` (stereo not shown) [Example 3835] as the compound, how does the “Toxicity (%) to Caco 2” value ([3]; 3 μM) read?
**A.** Its value is <1%.

**Q.** And the “Toxicity (%) to Caco 2” value ([3]; 10 μM)?
**A.** The value was <1%.

**Q.** What about the “Toxicity (%) to Caco 2” value ([3]; 30 μM) of the same compound?
**A.** The value was <1%.

**Q.** What about the IC50 [4] of the same compound?
**A.** Its IC50 is 43 nM.

**Q.** What about the “Rate of decrease (%) of bile acid” value ([5]; 0.1 mg/kg oral with cholic acid 200 mg/kg, Tween 20 0.05%) of the same compound?
**A.** Its value is 23%.

**Q.** For `CCCCC1(CCCC)CS(=O)(=O)c2ccc(N(C)C)cc2C(c2cccc(NC(=S)Nc3ccc(CC[N+](C)(C)Cc4ccccc4)cc3)c2)N1` (stereo not shown) [Example 5043], which “Toxicity (%) to Caco 2” value ([3]; 3 μM) is on record?
**A.** The value was <1%.

**Q.** What about the “Toxicity (%) to Caco 2” value ([3]; 10 μM) of the same compound?
**A.** Its value is <1%.

**Q.** And the “Toxicity (%) to Caco 2” value ([3]; 30 μM)?
**A.** The value was <1%.

**Q.** And the IC50 [4]?
**A.** The IC50 was 62 nM.

**Q.** What about the “Rate of decrease (%) of bile acid” value [5, 6] of the same compound?
**A.** Its value is 39%.

**Q.** Which “Toxicity (%) to Caco 2” value ([3]; 3 μM) does the source give for `CCCCC1(CCCC)CS(=O)(=O)c2ccc(N(C)C)cc2C(c2cccc(NC(=S)Nc3ccc(CC[N+]45CCC(CC4)CC5)cc3)c2)N1` (stereo not shown) [Example 5298] here?
**A.** The value was <1%.

**Q.** And the “Toxicity (%) to Caco 2” value ([3]; 10 μM)?
**A.** The value was <1%.

**Q.** And the “Toxicity (%) to Caco 2” value ([3]; 30 μM)?
**A.** The value was <1%.

**Q.** And the IC50 [4]?
**A.** The IC50 was 76 nM.

**Q.** And the “Rate of decrease (%) of bile acid” value [5, 6]?
**A.** Its value is 40%.
